In experiment [1] the target is T1, β-lactoglobulin (BLG) (Bos taurus, UniProt P02754).
T1 construct: purchased Sigma–Aldrich Co. (St. Louis, MO, USA)
T1 sequence (P02754 17-178): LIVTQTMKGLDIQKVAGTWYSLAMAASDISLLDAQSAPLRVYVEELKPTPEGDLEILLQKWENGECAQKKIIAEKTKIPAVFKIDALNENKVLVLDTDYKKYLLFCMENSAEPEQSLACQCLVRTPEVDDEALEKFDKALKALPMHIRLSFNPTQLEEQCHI
The experiment in a line: Thermodynamic parameters of Bai/Chr–BLG binding (Van't Hoff equation). Conditions: for ΔH° (enthalpy change) / ΔS° (entropy change): from Ka at 298, 304 and 310 K. The procedure:
In order to determine the primary forces between BLG and Bai/Chr, thermodynamic parameters were calculated using the following equations [23]:(3) logKa=−ΔH°/2.303RT+ΔS°/2.303R (4) ΔG°=ΔH°−TΔS° where R and T represent gas constant (8.314 J mol^−1 K^−1) and temperature (298, 304, and 310 K), respectively. Enthalpy change (ΔH°) and entropy change (ΔS°) of interaction between ligands and biomolecules are the main criteria for evaluating acting force, and free energy (ΔG°) is the main criteria for estimating the spontaneity of interaction.

Experiment [2] addresses T1, β-lactoglobulin (BLG). Nature of the experiment: Emulsifying ability and emulsifying stability of BLG. The settings on record: for effect on emulsifying stability (ES) of BLG: BLG to Bai/Chr 40:1 to 10:1; for effect on emulsifying ability (EA) of BLG: with the increase of Bai or Chr concentration (BLG to Bai/Chr 40:1 to 10:1). The procedure: Emulsifying ability (EA) and emulsifying stability (ES) were investigated by the method of Xiong et al. with slight modification. BLG solution (1 mg mL^−1) was added to Bai/Chr to form the solutions with different ratios of BLG to Bai/Chr (40:1, 30:1, 20:1, 10:1), and then soybean oil was added to form BLG solution containing 10% (v/v) oil. The emulsion was fully dispersed for 2 min at a rate of 7000 r min^−1 and repeated for three times. At 0 and 10 min, 30 µL of emulsion was extracted from the bottom of the sample and immediately added to 3 mL of 0.1% SDS solution. The absorbance of the sample was measured at 500 nm and recorded as A0 and A10, respectively. The EA (m^2 g^−1) and ES (min) were calculated according to the following equations:(11) EA (m^2 g^−1)=2×2.303/c×Φ×L×10^4×A0×D (12) ES (min)=A0/A0−A10×10 where c is the weight of the BLG per unit volume (g mL^−1), Φ is the volume fraction of the oil phase, L is the length of light path, and D is the dilution factor, D = 100.

These results are taken from PMC8774648, “Effects of Baicalein and Chrysin on the Structure and Functional Properties of β-Lactoglobulin” (Foods, 2022).

As to `O=c1cc(-c2ccccc2)oc2cc(O)c(O)c(O)c12` [Bai, baicalein], the “ΔG° (free energy)” value is -7.421 kcal/mol at β-lactoglobulin (BLG) [1] (T = 298 K), -7.543 kcal/mol on β-lactoglobulin (BLG) [1] (T = 304 K) and -7.665 kcal/mol on β-lactoglobulin (BLG) [1] (T = 310 K). Moreover, on β-lactoglobulin (BLG) [1], the “ΔH° (enthalpy change)” value was -1.34 kcal/mol. Besides, the “ΔS° (entropy change)” value on β-lactoglobulin (BLG) [1] amounted to 85.44 J mol^−1 K^−1. In addition, the “effect on emulsifying stability (ES) of BLG” value on β-lactoglobulin (BLG) [2] is “promoted the enhancement of ES”. Also, the “effect on emulsifying ability (EA) of BLG” value at β-lactoglobulin (BLG) [2] is recorded as “slightly improved”.

Turning to `O=c1cc(-c2ccccc2)oc2cc(O)cc(O)c12` [Chr, chrysin], the “ΔG° (free energy)” value at β-lactoglobulin (BLG) [1] (T = 298 K) is -7.268 kcal/mol. Further, the “ΔG° (free energy)” value at β-lactoglobulin (BLG) [1] (T = 304 K) is -7.443 kcal/mol. Moreover, at β-lactoglobulin (BLG) [1] (T = 310 K), the “ΔG° (free energy)” value is -7.62 kcal/mol. Also, at β-lactoglobulin (BLG) [1], the “ΔH° (enthalpy change)” value was found to be 1.48 kcal/mol and the “ΔS° (entropy change)” value was determined as 122.18 J mol^−1 K^−1. On β-lactoglobulin (BLG) [2], the “effect on emulsifying stability (ES) of BLG” value is given as “did the opposite” and the “effect on emulsifying ability (EA) of BLG” value is given as “slightly improved”.
